Measurements published in patent publication EP3833345B1, “SMALL MOLECULE-INHIBITORS OF 6-PHOSPHOFRUCTO-1-KINASE FOR REDUCING LACTATE GENERATION BY CANCER CELLS” (Kemijski Institut, priority 2018, dated 2020).
pIC50: −log10 of the molar value.

Assays:
[1] = tested on: COLO 829 cells; experiment: lactate excretion by COLO 829 cells; format: cell-based; conditions: inhibitor added 8 hours after inoculation, then at 24-hour intervals; low concentrations (from 10 µM)
[2] = tested on: MDA-MB-231 cells; experiment: cytotoxicity in MDA-MB-231 cells (LDH kit); format: cell-based
Protocol: (§1) Lactate generation, growth yield and survival under normal and inhibitory conditions of three different tumorigenic cells lines were determined in more detailed measurements. […] Cytotoxicity was measured by the Lactate dehydrogenase (LDH) kit (Roche).
Inhibitors No. 23, 29, 30 and 31 were tested for preventing lactate generation by the MDA-MB-231 cells.

[3] = tested on: Jurkat cells; experiment: long-term fed-batch cultivation of Jurkat cells (18 days); conditions: 100 µM
[4] = molecular target: T1, modified (47 kDa) 6-phosphofructo-1-kinase (PFK-M), sfPFK-M fragments (Homo sapiens, UniProt P08237); experiment: in vitro inhibition of purified recombinant modified (cancer-specific) PFK-M fragments
T1 sequence (P08237 1-443 limits assumed): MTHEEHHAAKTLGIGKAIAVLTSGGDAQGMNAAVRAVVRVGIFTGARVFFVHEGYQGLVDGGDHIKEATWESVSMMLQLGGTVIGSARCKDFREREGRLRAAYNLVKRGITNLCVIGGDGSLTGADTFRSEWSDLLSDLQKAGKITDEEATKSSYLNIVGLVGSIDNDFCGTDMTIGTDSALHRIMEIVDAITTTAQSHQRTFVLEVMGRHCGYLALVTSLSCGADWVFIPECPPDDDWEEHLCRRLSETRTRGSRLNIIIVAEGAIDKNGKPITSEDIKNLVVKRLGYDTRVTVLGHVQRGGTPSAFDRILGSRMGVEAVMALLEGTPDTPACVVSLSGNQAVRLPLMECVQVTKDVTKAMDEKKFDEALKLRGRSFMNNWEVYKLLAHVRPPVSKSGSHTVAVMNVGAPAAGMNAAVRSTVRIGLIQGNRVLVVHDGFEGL

[5] = molecular target: T2, native human (85 kDa) 6-phosphofructo-1-kinase (PFK-M), nPFK-M (Homo sapiens, UniProt P08237); experiment: in vitro inhibition of purified recombinant native PFK-M enzyme; conditions: inhibitor range 10 - 50 µM, Figure 3
T2 sequence (P08237 1-780): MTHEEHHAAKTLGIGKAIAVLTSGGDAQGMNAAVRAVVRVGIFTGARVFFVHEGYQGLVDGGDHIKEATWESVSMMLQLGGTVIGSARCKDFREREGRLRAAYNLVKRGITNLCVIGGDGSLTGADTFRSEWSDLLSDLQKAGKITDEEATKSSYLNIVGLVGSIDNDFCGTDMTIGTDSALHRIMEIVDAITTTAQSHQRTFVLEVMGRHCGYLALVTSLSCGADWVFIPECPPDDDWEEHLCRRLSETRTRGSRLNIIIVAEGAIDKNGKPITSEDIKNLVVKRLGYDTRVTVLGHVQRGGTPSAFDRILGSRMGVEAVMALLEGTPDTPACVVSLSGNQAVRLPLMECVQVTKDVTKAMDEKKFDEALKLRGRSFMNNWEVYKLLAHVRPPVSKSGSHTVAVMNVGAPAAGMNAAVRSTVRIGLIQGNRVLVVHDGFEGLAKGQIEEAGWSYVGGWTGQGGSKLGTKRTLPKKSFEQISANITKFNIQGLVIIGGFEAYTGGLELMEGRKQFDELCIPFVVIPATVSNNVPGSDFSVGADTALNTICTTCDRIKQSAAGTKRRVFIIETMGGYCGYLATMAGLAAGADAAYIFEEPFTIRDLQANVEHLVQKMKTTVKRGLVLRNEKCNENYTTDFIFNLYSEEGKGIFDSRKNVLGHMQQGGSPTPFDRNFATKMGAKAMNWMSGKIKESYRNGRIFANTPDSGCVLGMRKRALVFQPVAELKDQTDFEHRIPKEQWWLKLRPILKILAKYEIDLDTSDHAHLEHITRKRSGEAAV

[6] = tested on: COLO 829 cells; experiment: cytotoxicity in COLO 829 cells (LDH kit); format: cell-based
Protocol: as §1

[7] = sequential addition at 24-hour intervals, 92 hours, average over medium without and with inhibitor
[8] = single addition, average over control and different concentrations of inhibitor

With `O=C(CSc1nnc(-c2ccc3c(c2)OCO3)o1)Nc1ccon1` [Inhibitor No. 3, 2-[(5-benzo[1,3]dioxol-5-yl-1,3,4-oxadiazol-2-yl)sulfanyl]-N-isoxazol-3-yl-acetamide] the “lactate formation in COLO 829 cells, sequential re-insertion” value [1] was “strong reduction of lactate formation”, the “average percentages of dead cells, MDA-MB-231, sequential re-insertion” value [2, 7] was 2,05±0,18% and the “average percent of dead MDA-MB-231 cells” value [2, 8] was 7,2±0,47%. For the same molecule, the “viability of the Jurkat cells, long-term” value ([3]; fed-batch, 18 days) was “slight decrease of viability”, the “duration of slow reduction of lactate generation rate after the addition of inhibitor” value ([3]; long term experiment) was 24 to 48 h and the pIC50 [4] was roughly 4.82. For the same molecule, the “inhibition of the activity of native nPFK-M enzyme” value [5] was “remarkably reduced also the activity of native nPFK-M enzyme”, the “average percentages of dead cells, COLO 829, sequential re-insertion” value [6, 7] was 1,95±0,15% and the “average percent of dead COLO 829 cells” value [6, 8] was 5,01±1,08%.
